The text below walks through data of patent publication US20250313548A1 (Actio Biosciences, Inc., priority 2023, published 2025).

The term IC50 denotes the midpoint of a concentration-inhibition curve.

The target of the assay is human, KCNT1 (Homo sapiens (Human), UniProt Q5JUK3). The assay can be described thus: FLIPR Tl/K Flux Assay. The assay is classed as cell-based. To be noted: HEK293 cells stably expressing human KCNT1; Tl+ flux stimulated with EC80 of agonist Loxapine. The procedure, abridged: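 HEK293 cells stably expressing human KCNT1 were loaded with FLIPR potassium dye in HEPES/HBSS pH 7.4 with 5 mM probenecid, 1 h at 25 °C, then given test compound for 30 min at 25 °C. Tl+ flux was triggered with chloride-free buffer containing Tl+ and EC80 loxapine and read 160 s. IC50 came from Hill fits of % inhibition.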
Sequence of human, KCNT1 (Q5JUK3 whole entry): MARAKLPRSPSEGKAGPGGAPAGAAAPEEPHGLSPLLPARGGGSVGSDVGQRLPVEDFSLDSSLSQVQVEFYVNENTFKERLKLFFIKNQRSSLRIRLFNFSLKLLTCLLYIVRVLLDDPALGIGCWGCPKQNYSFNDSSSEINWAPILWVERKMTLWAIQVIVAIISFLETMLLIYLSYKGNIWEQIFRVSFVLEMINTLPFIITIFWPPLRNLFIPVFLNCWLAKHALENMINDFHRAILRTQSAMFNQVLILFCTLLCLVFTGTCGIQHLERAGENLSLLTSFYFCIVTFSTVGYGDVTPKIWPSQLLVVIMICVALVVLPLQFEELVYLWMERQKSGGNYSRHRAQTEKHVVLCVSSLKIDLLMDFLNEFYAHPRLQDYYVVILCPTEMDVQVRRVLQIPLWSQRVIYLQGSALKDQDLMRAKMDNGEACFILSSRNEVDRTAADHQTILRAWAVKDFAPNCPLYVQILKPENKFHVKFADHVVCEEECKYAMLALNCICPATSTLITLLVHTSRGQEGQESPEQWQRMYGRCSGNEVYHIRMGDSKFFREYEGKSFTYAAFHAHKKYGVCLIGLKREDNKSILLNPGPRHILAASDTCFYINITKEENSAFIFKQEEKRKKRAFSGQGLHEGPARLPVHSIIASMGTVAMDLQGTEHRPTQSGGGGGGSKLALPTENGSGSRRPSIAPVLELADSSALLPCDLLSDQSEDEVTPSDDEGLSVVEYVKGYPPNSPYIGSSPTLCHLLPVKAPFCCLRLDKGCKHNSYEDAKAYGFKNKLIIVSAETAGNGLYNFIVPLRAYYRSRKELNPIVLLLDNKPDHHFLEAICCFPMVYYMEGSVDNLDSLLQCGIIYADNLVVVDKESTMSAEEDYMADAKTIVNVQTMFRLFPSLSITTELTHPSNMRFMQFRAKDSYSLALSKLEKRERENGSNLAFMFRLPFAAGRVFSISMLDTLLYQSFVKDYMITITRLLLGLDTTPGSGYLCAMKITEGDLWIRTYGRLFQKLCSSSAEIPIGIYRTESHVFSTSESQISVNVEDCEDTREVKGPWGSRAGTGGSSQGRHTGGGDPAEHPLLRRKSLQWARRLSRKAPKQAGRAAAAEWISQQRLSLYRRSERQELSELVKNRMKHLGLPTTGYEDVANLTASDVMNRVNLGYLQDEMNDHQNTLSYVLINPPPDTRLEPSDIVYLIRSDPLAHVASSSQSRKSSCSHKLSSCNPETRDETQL
Consider `COc1cc(-c2nc3c(o2)[C@@H](NC(=O)c2cccc(C(F)(F)F)c2)CCC3)c(Cl)cn1` [Compound I-167a, (S)-N-(2-(5-Chloro-2-methoxypyridin-4-yl)-4,5,6,7-tetrahydrobenzo[d]oxazol-7-yl)-3-(trifluoromethyl)benzamide], for which the half-maximal inhibitory concentration (IC50) is < 250 nM.
On to `COc1cc(-c2nc3c(o2)[C@@H](NC(=O)c2cccc(C(F)(F)F)c2)CCC3)ccn1` [Compound I-168a, (S)-N-(2-(2-Methoxypyridin-4-yl)-4,5,6,7-tetrahydrobenzo[d]oxazol-7-yl)-3-(trifluoromethyl)benzamide], for which the IC50 is < 250 nM.
Consider `O=C(N[C@H]1CCCc2nc(-c3ccnc(C4CC4)c3)oc21)c1ccnc(OC(F)(F)F)c1` [Compound I-169a, (S)-N-(2-(2-Cyclopropylpyridin-4-yl)-4,5,6,7-tetrahydrobenzo[d]oxazol-7-yl)-2-(trifluoromethoxy)isonicotinamide], for which the 50% inhibitory concentration (IC50) is < 250 nM.
Take `O=C(N[C@H]1CCCc2nc(-c3ccnc(C4CC4)c3)oc21)c1cccc(OC(F)(F)F)c1` [Compound I-170a, (S)-N-(2-(2-Cyclopropylpyridin-4-yl)-4,5,6,7-tetrahydrobenzo[d]oxazol-7-yl)-3-(trifluoromethoxy)benzamide]: the IC50 is < 250 nM.
As for `O=C(N[C@H]1CCCc2nc(-c3ccnc(C4CC4)c3)oc21)c1cccc(C(F)(F)F)c1` [Compound I-171a, (S)-N-(2-(2-Cyclopropylpyridin-4-yl)-4,5,6,7-tetrahydrobenzo[d]oxazol-7-yl)-3-(trifluoromethyl)benzamide], the figure is < 250 nM; as for `COc1cc(-c2cc3n(n2)CC[C@@H]3NC(=O)c2cc(C(F)(F)F)nn2C)c(C(F)(F)F)cn1` [Compound I-172a, (S)-N-(2-(2-Methoxy-5-(trifluoromethyl)pyridin-4-yl)-5,6-dihydro-4H-pyrrolo[1,2-b]pyrazol-4-yl)-1-methyl-3-(trifluoromethyl)-1H-pyrazole-5-carboxamide], < 250 nM.
Regarding `COc1cc(-c2cc3n(n2)CC[C@H]3NC(=O)c2cc(C(F)(F)F)nn2C)c(C(F)(F)F)cn1` [Compound I-172b], the half-maximal inhibitory concentration (IC50) is > 1000 nM.
For `COc1cc(-c2nc3c(o2)[C@@H](NC(=O)c2cncc(C(F)(F)F)n2)CCC3)c(F)cn1` [Compound I-173a] the value was 250 to 500 nM; for `COc1cc(-c2nc3c(o2)[C@@H](NC(=O)c2cc(Cl)cc(Cl)c2)CCC3)c(F)cn1` [Compound I-174a, (S)-3,5-Dichloro-N-(2-(5-fluoro-2-methoxypyridin-4-yl)-4,5,6,7-tetrahydrobenzo[d]oxazol-7-yl)benzamide], < 250 nM.
Turning to `COc1cc(-c2nc3c(o2)[C@@H](NC(=O)c2ccnc(OC(F)(F)F)c2)CCC3)c(F)cn1` [Compound I-175a], the half-inhibitory concentration (IC50) was < 250 nM.
For `COc1cc(-c2nc3c(o2)[C@@H](NC(=O)c2cccc(OC(F)(F)F)c2)CCC3)c(F)cn1` [Compound I-176a, (S)-N-(2-(5-Fluoro-2-methoxypyridin-4-yl)-4,5,6,7-tetrahydrobenzo[d]oxazol-7-yl)-3-(trifluoromethoxy)benzamide] the value was < 250 nM; for `COc1cc(-c2nc3c(o2)[C@@H](NC(=O)c2cccc(C(F)(F)F)c2)CCC3)c(F)cn1` [Compound I-177a, (S)-N-(2-(5-Fluoro-2-methoxypyridin-4-yl)-4,5,6,7-tetrahydrobenzo[d]oxazol-7-yl)-3-(trifluoromethyl)benzamide], < 250 nM.
With `Cc1cnc(C(F)(F)F)cc1-c1nc2c(o1)CCC[C@@H]2NC(=O)c1cc(C(F)(F)F)nn1C` [Compound I-178a, (S)-1-Methyl-N-(2-(5-methyl-2-(trifluoromethyl)pyridin-4-yl)-4,5,6,7-tetrahydrobenzo[d]oxazol-4-yl)-3-(trifluoromethyl)-1H-pyrazole-5-carboxamide], the IC50 is < 250 nM.
